Experimental data reported in PubChem BioAssay (NCI).
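At the GI50, growth is halved. TGI: total growth inhibition.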

Key:
Assay in all cases: DTP human tumour cell line panel, 384-well format
[1] = tested on: NCI-H322M lung
[2] = tested on: RXF 393 renal
[3] = tested on: COLO 205 colon
[4] = tested on: OVCAR-3 ovarian
[5] = tested on: A549 NSCLC
[6] = tested on: A498 renal
[7] = tested on: MDA-MB-231 breast
[8] = tested on: OVCAR-8 ovarian
[9] = tested on: HCT-116 colon
[10] = tested on: SNB-75 CNS
[11] = tested on: UO-31 renal
[12] = tested on: KM12 colon
[13] = tested on: NCI-H23 lung
[14] = tested on: K-562 leukemia
[15] = tested on: NCI/ADR-RES ovarian
[16] = tested on: MDA-MB-435 melanoma
[17] = tested on: SK-OV-3 ovarian
[18] = tested on: NCI-H460 NSCLC
[19] = tested on: SK-MEL-5 melanoma
[20] = tested on: HS 578T breast
[21] = tested on: NCI-H226 lung
[22] = tested on: UACC-257 melanoma
[23] = tested on: NCI-H522 lung
[24] = tested on: PC-3 prostate
[25] = tested on: LOX IMVI melanoma
[26] = tested on: SK-MEL-28 melanoma
[27] = tested on: TK-10 renal
[28] = tested on: OVCAR-4 ovarian
[29] = tested on: CAKI-1 renal
[30] = tested on: MALME-3M melanoma
[31] = tested on: EKVX NSCLC
[32] = tested on: SNB-19 CNS
[33] = tested on: OVCAR-5 ovarian
[34] = tested on: IGROV1 ovarian
[35] = tested on: HCC-2998 colon
[36] = tested on: BT-549 breast
[37] = tested on: 786-0 renal
[38] = tested on: HCT-15 colon
[39] = tested on: RPMI-8226 leukemia
[40] = tested on: T-47D breast
[41] = tested on: SW-620 colon
[42] = tested on: HOP-92 NSCLC
[43] = tested on: CCRF-CEM leukemia
[44] = tested on: SN12C renal
[45] = tested on: DU-145 prostate
[46] = tested on: M14 melanoma
[47] = tested on: MDA-MB-468 breast
[48] = tested on: ACHN renal
[49] = tested on: UACC-62 melanoma
[50] = tested on: HOP-62 NSCLC
[51] = tested on: HT29 colon
[52] = tested on: SF-268 CNS
[53] = tested on: SR leukemia
[54] = tested on: SF-295 CNS
[55] = tested on: MOLT-4 leukemia
[56] = tested on: SF-539 CNS
[57] = tested on: HL-60(TB) leukemia
[58] = tested on: MCF7 breast

CCc1c2c(nc3ccc(O)cc13)-c1cc3c(c(=O)n1C2)COC(=O)[C@]3(O)CC
GI50 [1]: 0.0223 µM
TGI [1]: 0.12 µM
TGI [2]: 0.0264 µM
TGI [3]: 1.06 µM
TGI [4]: 0.0364 µM
GI50 [5]: 0.0344 µM
TGI [5]: 1.06 µM
TGI [6]: 0.129 µM
GI50 [7]: 0.128 µM
TGI [7]: 3.8 µM
TGI [8]: 0.0478 µM
TGI [9]: 0.114 µM
TGI [10]: 0.0141 µM
TGI [11]: 0.0495 µM
GI50 [12]: 0.0205 µM
TGI [12]: 0.153 µM
TGI [13]: 0.0133 µM
TGI [14]: 0.292 µM
TGI [15]: 0.0303 µM
GI50 [16]: 0.0331 µM
TGI [16]: 0.266 µM
TGI [17]: 0.0175 µM
TGI [18]: 0.0156 µM
TGI [19]: 0.0169 µM
GI50 [20]: 0.14 µM
TGI [20]: 1.93 µM
TGI [21]: 0.135 µM
GI50 [22]: 0.0118 µM
TGI [22]: 0.285 µM
TGI [23]: 0.0316 µM
GI50 [24]: 0.115 µM
TGI [24]: 4.66 µM
TGI [25]: 0.0238 µM
TGI [26]: 0.156 µM
GI50 [27]: 0.0351 µM
TGI [27]: 0.919 µM
GI50 [28]: 0.0478 µM
TGI [28]: 0.224 µM
TGI [29]: 0.0926 µM
GI50 [30]: 0.0131 µM
TGI [30]: 0.297 µM
GI50 [31]: 0.0897 µM
TGI [31]: 2.63 µM
TGI [32]: 0.0163 µM
GI50 [33]: 0.0398 µM
TGI [33]: 0.249 µM
GI50 [34]: 0.0247 µM
TGI [34]: 1.05 µM
TGI [35]: 0.0754 µM
TGI [36]: 0.0264 µM
TGI [37]: 0.0125 µM
TGI [38]: 0.137 µM
TGI [39]: 0.0616 µM
TGI [40]: 0.0155 µM
TGI [41]: 0.239 µM
TGI [42]: 0.0644 µM

CCCCCCCCCCCCCCCCCCOP(=O)([O-])OC1CC[N+](C)(C)CC1
GI50 [43]: 1.8 µM
TGI [43]: 4.79 µM
GI50 [1]: 60.9 µM
TGI [1]: > 100 µM
GI50 [2]: 2.87 µM
TGI [2]: 18.1 µM
GI50 [3]: 1.29 µM
TGI [3]: 16 µM
GI50 [4]: 64 µM
TGI [4]: > 100 µM
GI50 [44]: 25.5 µM
TGI [44]: 98 µM
GI50 [5]: 14.4 µM
TGI [5]: 28 µM
GI50 [6]: 17.2 µM
TGI [6]: 92.2 µM
GI50 [45]: 36.4 µM
TGI [45]: > 100 µM
GI50 [7]: 15.9 µM
TGI [7]: 52.7 µM
GI50 [46]: 21.1 µM
TGI [46]: 62.8 µM
GI50 [47]: 23.2 µM
TGI [47]: 49 µM
GI50 [48]: 15.9 µM
TGI [48]: 30.6 µM
GI50 [8]: 39.9 µM
TGI [8]: > 100 µM
GI50 [49]: 23.2 µM
TGI [49]: > 100 µM
GI50 [10]: 68.8 µM
TGI [10]: > 100 µM
GI50 [11]: 45.9 µM
TGI [11]: > 100 µM
GI50 [12]: 0.757 µM
TGI [12]: 10.1 µM
GI50 [13]: > 100 µM
TGI [13]: > 100 µM
GI50 [14]: 61.5 µM
TGI [14]: > 100 µM
GI50 [15]: > 100 µM
TGI [15]: > 100 µM
GI50 [16]: > 100 µM
TGI [16]: > 100 µM
GI50 [17]: > 100 µM
TGI [17]: > 100 µM
GI50 [18]: 1.47 µM
TGI [18]: 14.7 µM
GI50 [19]: > 100 µM
TGI [19]: > 100 µM
GI50 [20]: 32.8 µM
TGI [20]: > 100 µM
GI50 [50]: 11.4 µM
TGI [50]: 28.4 µM
GI50 [51]: 2.9 µM
TGI [51]: 12.9 µM
GI50 [21]: 50 µM
TGI [21]: > 100 µM
GI50 [52]: 22.2 µM
TGI [52]: 85.7 µM
GI50 [22]: > 100 µM
TGI [22]: > 100 µM
GI50 [53]: 0.406 µM
TGI [53]: 2 µM
GI50 [23]: 8.69 µM
TGI [23]: 23.1 µM
GI50 [24]: 0.362 µM
TGI [24]: 1.4 µM
GI50 [25]: 16.9 µM
TGI [25]: 54 µM
GI50 [26]: > 100 µM
TGI [26]: > 100 µM
GI50 [27]: 1.48 µM
TGI [27]: 3 µM
GI50 [28]: 25.7 µM
TGI [28]: 76.6 µM
GI50 [29]: 10.8 µM
TGI [29]: 24.5 µM
GI50 [30]: > 100 µM
TGI [30]: > 100 µM
GI50 [31]: 32.5 µM
TGI [31]: > 100 µM
GI50 [32]: 21.3 µM
TGI [32]: 77 µM
GI50 [33]: 6.35 µM
TGI [33]: 36.4 µM
GI50 [54]: 11.7 µM
TGI [54]: 61.9 µM
GI50 [34]: 1.67 µM
TGI [34]: 3.99 µM
GI50 [55]: 7.26 µM
TGI [55]: 19.9 µM
GI50 [35]: 4.59 µM
TGI [35]: 26 µM
GI50 [36]: 11.5 µM
TGI [36]: 24.3 µM
GI50 [37]: 7.36 µM
TGI [37]: 31.3 µM
GI50 [56]: > 100 µM
TGI [56]: > 100 µM
GI50 [57]: 1.45 µM
TGI [57]: 2.85 µM
GI50 [38]: 3.21 µM
TGI [38]: 11 µM
GI50 [39]: 0.32 µM
TGI [39]: 0.819 µM
GI50 [40]: 29.6 µM
TGI [40]: > 100 µM
GI50 [58]: 57.5 µM
TGI [58]: > 100 µM
GI50 [41]: 10 µM
TGI [41]: > 100 µM
GI50 [42]: 11.6 µM
TGI [42]: 24.6 µM
